Experimental data published in US6593334B1, “Camptothecin-taxoid conjugates as antimitotic and antitumor agents” (The University of North Carolina at Chapel Hill, priority 2002, dated 2003).

Key:
[1] = system: KB (epidermoid carcinoma); experiment: Human tumor cell replication assay (sulforhodamine B), KB; type: cell-based; settings: KB cells; for Cell Line/ED50 KB: three days of continuous exposure, SRB assay
Procedure: (§1) Human Tumor Cell Replication Assay. Compounds were tested as inhibitors of cell growth against a limited panel of solid tumor lines including KB (epidermoid carcinoma, CL 17) and a camptothecin-resistant sub-line called KB-CPT; HCT-8 (ileocecal adenocarcinoma, CCL 244); MCF-7 (breast adenocarcinoma, HTB 22); PC-3 (prostate adenocarcinoma, CRL 1435); 1A9 (ovarian carcinoma) and a paclitaxel resistant sub-line called PTX10 with mutated β-tubulin. Drug-resistant cell lines were generous gifts of Dr. Y. C. Cheng (Yale University, New Haven, Conn.) and Dr. P. Giannakakou (NIH, Bethesda, Md.). Cell lines were adapted for growth in RPMI-1640 medium supplemented with 25 mM Hepes, 2% NaHCO3, 10% (v/v) fetal calf serum and 100 μg/mL kanamycin. Cultures were maintained in a 5% CO2 atmosphere at 37° C. The sulforhodamine B microtiter plate assay described by Rubinstein et al. (1990) J. Natl. Cancer Inst. 82:1113, was used to evaluate compounds as inhibitors of cell replication. The ED50 value, the concentration of compound that inhibited cell line replication by 50% relative to control after three days of continuous exposure was interpolated from dose-response graphs fitted to data using Prizm (GraphPad software, San Diego, Calif.).
(§2) The five conjugates (16-20) were tested for cytotoxicity against a panel of human tumor cell lines (HTCL) including paclitaxel-resistant and camptothecin-resistant derivatives as described in Rubinstein et al. (1990) J. Natl. Cancer Inst. 82:1113. The results are shown in Table 2 with the values for paclitaxel (1) and camptothecin (2) given for comparison.

[2] = system: KB-CPT (camptothecin-resistant KB sub-line); experiment: Human tumor cell replication assay (sulforhodamine B), KB-CPT; type: cell-based; settings: camptothecin-resistant KB-CPT cells, three days of continuous exposure, SRB assay
Procedure: as §1, §2

[3] = system: 1A9 (ovarian carcinoma); experiment: Human tumor cell replication assay (sulforhodamine B), 1A9; type: cell-based; settings: IA9 cells; for Cell Line/ED50 IA9: three days of continuous exposure, SRB assay
Procedure: as §1, §2

[4] = system: 1A9-PTX10 (paclitaxel resistant sub-line with mutated β-tubulin); experiment: Human tumor cell replication assay (sulforhodamine B), PTX10; type: cell-based; settings: paclitaxel-resistant IA9-PTX10 cells, three days of continuous exposure, SRB assay
Procedure: as §1, §2

[5] = system: HCT-8 (ileocecal adenocarcinoma); experiment: Human tumor cell replication assay (sulforhodamine B), HCT-8; type: cell-based; settings: HCT8 cells, three days of continuous exposure, SRB assay
Procedure: as §1, §2

[6] = system: MCF-7 (breast adenocarcinoma); experiment: Human tumor cell replication assay (sulforhodamine B), MCF-7; type: cell-based; settings: MCF-7 cells, three days of continuous exposure, SRB assay
Procedure: as §1, §2

[7] = system: PC-3 (prostate adenocarcinoma); experiment: Human tumor cell replication assay (sulforhodamine B), PC-3; type: cell-based; settings: PC-3 cells, three days of continuous exposure, SRB assay
Procedure: as §1, §2

[8] = system: human tumor cell lines (HTCL); experiment: Human tumor cell line (HTCL) panel, mean over lines; type: cell-based; settings: mean from HTCL data, does not include values for drug-resistant variants
Procedure: as §1, §2

[9] = biological target: T1, human DNA Topoisomerase I (Homo sapiens, UniProt P11387); experiment: DNA Topoisomerase I activity assay (plasmid DNA relaxation); type: biochemical
T1 construct: purchased TopoGen, Columbus, Ohio
T1 sequence (P11387 1-765): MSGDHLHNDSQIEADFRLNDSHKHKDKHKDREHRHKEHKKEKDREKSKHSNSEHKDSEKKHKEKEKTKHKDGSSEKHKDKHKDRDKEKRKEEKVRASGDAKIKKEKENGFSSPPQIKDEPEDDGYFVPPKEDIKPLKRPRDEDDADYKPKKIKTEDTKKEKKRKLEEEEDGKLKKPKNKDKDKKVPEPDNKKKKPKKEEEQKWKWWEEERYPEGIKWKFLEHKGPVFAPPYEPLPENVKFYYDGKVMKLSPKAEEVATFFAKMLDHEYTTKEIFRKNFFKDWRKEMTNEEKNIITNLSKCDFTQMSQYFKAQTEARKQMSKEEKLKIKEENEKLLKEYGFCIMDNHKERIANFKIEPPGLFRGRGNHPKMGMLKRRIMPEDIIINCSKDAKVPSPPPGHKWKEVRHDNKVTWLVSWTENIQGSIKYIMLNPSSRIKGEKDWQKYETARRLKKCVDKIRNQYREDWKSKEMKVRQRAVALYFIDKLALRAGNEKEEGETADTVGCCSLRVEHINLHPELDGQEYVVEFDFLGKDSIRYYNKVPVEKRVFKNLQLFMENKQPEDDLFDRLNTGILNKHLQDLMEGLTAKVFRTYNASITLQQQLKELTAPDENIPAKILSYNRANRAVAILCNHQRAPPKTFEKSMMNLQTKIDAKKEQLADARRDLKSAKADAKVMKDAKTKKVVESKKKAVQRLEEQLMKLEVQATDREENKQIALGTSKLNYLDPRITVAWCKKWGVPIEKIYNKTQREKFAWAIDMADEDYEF
Procedure: DNA Topoisomerase I Activity Assay. Compounds were tested as inhibitors of enzyme catalyzed plasmid DNA relaxation. Reactions contained 0.5 μg pBR322 DNA and 0.5 U human DNA Topoisomerase I (TopoGen, Columbus, Ohio), compounds at 50 μM and buffer components described previously in Krishnan et al. (2000) Anticancer Drug Design 15:255. After 15 min at 37° C., reactions were terminated by adding proteinase K (0.1 mg/mL) and 1% (w/v) SDS. After 1 hour at 50° C., DNA was resolved on a 1% (w/v) agarose gel containing […] ethidium bromide in standard TBE buffer, and photographed under UV light using polaroid 667 film.
Conjugates 16-20 were also tested as inhibitors of human DNA topo I activity in vitro (FIG. 4) in the manner as described in Krishnan et al. (2000) Anticancer Drug Design 15:255. […] None of the conjugates inhibited DNA relaxation.

[10] = at lowest test concentration (inhibition >50%)

CCC1(O)C(=O)OCc2c1cc1n(c2=O)Cc2c-1nc1ccccc1c2C=NCCCC(=O)OC1CC2OCC2(OC(C)=O)C2C(OC(=O)c3ccccc3)C3(O)CC(OC(=O)C(O)C(NC(=O)c4ccccc4)c4ccccc4)C(C)=C(C(OC(C)=O)C(=O)C12C)C3(C)C (stereo not drawn) [Compound 17]
Cell Line/ED50 KB [1]: −10.4 log10 M
Cell Line/ED50 KB-CPT [2]: −9.7 log10 M
Cell Line/ED50 IA9 [3]: −10.2 log10 M
Cell Line/ED50 IA9-PTX10 [4]: −10.5 log10 M
Cell Line/ED50 HCT8 [5]: −10.0 log10 M
Cell Line/ED50 MCF-7 [6]: −7.1 log10 M
Cell Line/ED50 PC-3 [7]: −7.1 log10 M
Mean ED50 [8]: −9.0 log10 M
inhibition of human DNA topo I activity in vitro [9]: inactive

CCC1(O)C(=O)OCc2c1cc1n(c2=O)Cc2c-1nc1ccccc1c2C=NCCCCCC(=O)OC1CC2OCC2(OC(C)=O)C2C(OC(=O)c3ccccc3)C3(O)CC(OC(=O)C(O)C(NC(=O)c4ccccc4)c4ccccc4)C(C)=C(C(OC(C)=O)C(=O)C12C)C3(C)C (stereo not drawn) [Compound 18]
Cell Line/ED50 KB [1]: −9.3 log10 M
Cell Line/ED50 KB-CPT [2]: −8.1 log10 M
Cell Line/ED50 IA9 [3]: −10.0 log10 M
Cell Line/ED50 IA9-PTX10 [4]: −10.5 log10 M
Cell Line/ED50 HCT8 [5]: −10.6 log10 M
Cell Line/ED50 MCF-7 [6]: −7.5 log10 M
Cell Line/ED50 PC-3 [7]: −7.5 log10 M
Mean ED50 [8]: −9.0 log10 M
inhibition of human DNA topo I activity in vitro [9]: only marginal activity

CC(=O)O[C@H]1C(=O)[C@@]2(C)[C@H]([C@H](OC(=O)c3ccccc3)[C@]3(O)C[C@H](OC(=O)[C@H](O)[C@@H](NC(=O)c4ccccc4)c4ccccc4)C(C)=C1C3(C)C)[C@]1(OC(C)=O)CO[C@@H]1C[C@@H]2O [Paclitaxel, reference compound]
Cell Line/ED50 KB [1]: −12.1 log10 M
Cell Line/ED50 KB-CPT [2]: −12.2 log10 M
Cell Line/ED50 IA9 [3]: −12.2 log10 M
Cell Line/ED50 IA9-PTX10 [4]: −11.7 log10 M
Cell Line/ED50 HCT8 [5]: −7.1 log10 M
Cell Line/ED50 MCF-7 [6]: −13.9 log10 M
Cell Line/ED50 PC-3 [7]: −10.3 log10 M
Mean ED50 [8]: −11.1 log10 M

CC[C@@]1(O)C(=O)OCc2c1cc1n(c2=O)Cc2cc3ccccc3nc2-1 [Camptothecin, camptothecin]
Cell Line/ED50 KB [1]: −10.8 log10 M
Cell Line/ED50 KB-CPT [2]: −7.5 log10 M
Cell Line/ED50 IA9 [3]: −10.2 log10 M
Cell Line/ED50 IA9-PTX10 [4]: −9.4 log10 M
Cell Line/ED50 HCT8 [5]: −9.3 log10 M
Cell Line/ED50 MCF-7 [6]: −7.1 log10 M
Cell Line/ED50 PC-3 [7]: −7.1 log10 M
Mean ED50 [8]: −8.9 log10 M

CCC1(O)C(=O)OCc2c1cc1n(c2=O)Cc2c-1nc1ccccc1c2C=NCCC(=O)OC1CC2OCC2(OC(C)=O)C2C(OC(=O)c3ccccc3)C3(O)CC(OC(=O)C(O)C(NC(=O)c4ccccc4)c4ccccc4)C(C)=C(C(OC(C)=O)C(=O)C12C)C3(C)C (stereo not drawn) [Compound 16]
observed percentage inhibition (bracketed value) [1, 10]: (67) %
Cell Line/ED50 KB [1]: <−11.0 log10 M
Cell Line/ED50 KB-CPT [2]: −11.1 log10 M
observed percentage inhibition (bracketed value) [3, 10]: (76) %
Cell Line/ED50 IA9 [3]: <−11.0 log10 M
Cell Line/ED50 IA9-PTX10 [4]: −10.9 log10 M
Cell Line/ED50 HCT8 [5]: −10.6 log10 M
Cell Line/ED50 MCF-7 [6]: −7.1 log10 M
Cell Line/ED50 PC-3 [7]: −7.0 log10 M
Mean ED50 [8]: <−9.3 log10 M
inhibition of human DNA topo I activity in vitro [9]: only marginal activity
